The subject of experiment [1] is HT1080 (human fibrosarcoma cells). The experiment in a line: MTT cancer cell growth inhibition. Particulars: Homo sapiens, HT-1080, 72 h, MTT, 72 hours incubation, read-out: GI50 HT1. In kind it is cell-based. The gist of the method:
(§1)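 Cells grown in DMEM or RPMI 1640 with 10% FBS were seeded at 1500/well and left overnight at 37° C., 5% CO2. Compounds at final 10^−5 to 10^−10 M were added in triplicate for 72 h. MTT was then added for 4 h, formazan dissolved in DMSO, and absorbance read at 570 nm to derive GI50.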

Experiment [2] concerns K562 (human leukemia cells). The experiment in a line: MTT cancer cell growth inhibition. As to conditions: Homo sapiens, K562, 72 h, MTT, 72 hours incubation, K562 cells; read-out: GI50 K562. In kind it is cell-based. A digest of the protocol:
as §1

Experiment [3] has as its system KBM-5 (human chronic myelogenous leukemia). The experiment in a line: MTT cancer cell growth inhibition. Particulars: Homo sapiens, KBM5, 72 h, MTT, 72 hours incubation, KBM-5 cells; read-out: GI50 KBM-5. In kind it is cell-based. A digest of the protocol:
as §1

The subject of experiment [4] is Bel-7402 (human hepatoma cells). The experiment in a line: MTT cancer cell growth inhibition. In kind it is cell-based. As to conditions: Homo sapiens, Bel-7402, 72 h, MTT, 72 hours incubation, Bel-7402 cells; read-out: GI50 Bel-7402. The gist of the method:
as §1

In experiment [5] the test system is MDA-MB-231 (breast cancer cells). Nature of the experiment: MTT cancer cell growth inhibition. It is filed as cell-based. As to conditions: Homo sapiens, MDA-MB-231, 72 h, read-out: GI50 MDA-MB-231, MTT, 72 hours incubation, MDA-MB-231 cells. A digest of the protocol: as §1
Experiment [6] deals with H1975 (non-small cell lung adenocarcinoma). The experiment in a line: MTT cancer cell growth inhibition. Particulars: Homo sapiens, NCI-H1975, 72 h, MTT, 72 hours incubation, H1975 cells; read-out: GI50 H1975. In kind it is cell-based. The gist of the method:
as §1

The subject of experiment [7] is BGC-823 (human gastric cancer cells). Nature of the experiment: MTT cancer cell growth inhibition. In kind it is cell-based. Particulars: Homo sapiens, BGC-823, 72 h, MTT, 72 hours incubation, read-out: GI50 BG. The gist of the method: as §1
In experiment [8] the test system is MOLT-4 (human acute lymphoblastic leukemia cells). Nature of the experiment: MTT cancer cell growth inhibition. It is filed as cell-based. Particulars: Homo sapiens, MOLT-4, 72 h, MTT, 72 hours incubation, read-out: GI50 Mol. A digest of the protocol: as §1
In experiment [9] the test system is PANC-1 (Pac-1, human pancreatic cancer cells). Nature of the experiment: MTT cancer cell growth inhibition. In kind it is cell-based. Particulars: Homo sapiens, PANC-1, 72 h, MTT, 72 hours incubation, read-out: GI50 PAN. A digest of the protocol: as §1
Experiment [10] relates to N-87 (human gastric cancer cells). Nature of the experiment: MTT cancer cell growth inhibition. In kind it is cell-based. Particulars: Homo sapiens, 72 h, MTT, 72 hours incubation, N-87 cells; read-out: GI50 N-87. The gist of the method: as §1
Experiment [11] concerns Huh-7 (human hepatoma cells). The experiment in a line: MTT cancer cell growth inhibition. In kind it is cell-based. As to conditions: Homo sapiens, Huh-7, 72 h, MTT, 72 hours incubation, Huh-7 cells; read-out: GI50 Huh-7. A digest of the protocol:
as §1

Experiment [12] deals with MCF-7 (human breast cancer cells). The experiment in a line: MTT cancer cell growth inhibition. In kind it is cell-based. As to conditions: Homo sapiens, MCF7, 72 h, 72 hours incubation, read-out: GI50 MCF. The gist of the method: as §1
Experiment [13] concerns DU145 (human prostate cancer cells). Nature of the experiment: MTT cancer cell growth inhibition. In kind it is cell-based. As to conditions: Homo sapiens, DU-145, 72 h, MTT, 72 hours incubation, read-out: GI50 Du1. The gist of the method: as §1
For experiment [14], the system named is HCC827 (human non-small cell lung cancer cells). Nature of the experiment: MTT cancer cell growth inhibition. It is filed as cell-based. As to conditions: Homo sapiens, HCC827, 72 h, MTT, 72 hours incubation, HCC827 cells; read-out: GI50 HCC827. The gist of the method: as §1
Experiment [15] deals with U937 (human leukemia cells). The experiment in a line: MTT cancer cell growth inhibition. In kind it is cell-based. As to conditions: Homo sapiens, U-937, 72 h, MTT, 72 hours incubation, read-out: GI50 U93. The gist of the method: as §1
Experiment [16] has as its system Hela (human cervical cancer cells). The experiment in a line: MTT cancer cell growth inhibition. In kind it is cell-based. Particulars: Homo sapiens, HeLa, 72 h, MTT, 72 hours incubation, read-out: GI50 Hela. The gist of the method: as §1
Experiment [17] concerns lncap (prostate cancer cells). Nature of the experiment: MTT cancer cell growth inhibition. In kind it is cell-based. As to conditions: Homo sapiens, LNCaP, 72 h, MTT, 72 hours incubation, read-out: GI50 lnca. A digest of the protocol:
as §1

Experiment [18] concerns A549 (human lung cancer cells). The experiment in a line: MTT cancer cell growth inhibition. In kind it is cell-based. As to conditions: Homo sapiens, A549, 72 h, MTT, 72 hours incubation, read-out: GI50 A54. The gist of the method:
as §1

The subject of experiment [19] is KBM5-T315I (human chronic myelogenous leukemia). Nature of the experiment: MTT cancer cell growth inhibition. In kind it is cell-based. As to conditions: Homo sapiens, 72 h, MTT, 72 hours incubation, KBM5-T315I cells; read-out: GI50 KBM5-T315I. The gist of the method:
as §1

The test system of experiment [20] is SGC-7901 (human gastric cancer cells). The experiment in a line: MTT cancer cell growth inhibition. In kind it is cell-based. As to conditions: Homo sapiens, SGC-7901, 72 h, MTT, 72 hours incubation, SGC-7901 cells; read-out: GI50 SGC-7901. The gist of the method: as §1
The next experiment concerns the target T1, HDAC7 (Homo sapiens, UniProt Q8WUI4).
T1 sequence (Q8WUI4 1-952): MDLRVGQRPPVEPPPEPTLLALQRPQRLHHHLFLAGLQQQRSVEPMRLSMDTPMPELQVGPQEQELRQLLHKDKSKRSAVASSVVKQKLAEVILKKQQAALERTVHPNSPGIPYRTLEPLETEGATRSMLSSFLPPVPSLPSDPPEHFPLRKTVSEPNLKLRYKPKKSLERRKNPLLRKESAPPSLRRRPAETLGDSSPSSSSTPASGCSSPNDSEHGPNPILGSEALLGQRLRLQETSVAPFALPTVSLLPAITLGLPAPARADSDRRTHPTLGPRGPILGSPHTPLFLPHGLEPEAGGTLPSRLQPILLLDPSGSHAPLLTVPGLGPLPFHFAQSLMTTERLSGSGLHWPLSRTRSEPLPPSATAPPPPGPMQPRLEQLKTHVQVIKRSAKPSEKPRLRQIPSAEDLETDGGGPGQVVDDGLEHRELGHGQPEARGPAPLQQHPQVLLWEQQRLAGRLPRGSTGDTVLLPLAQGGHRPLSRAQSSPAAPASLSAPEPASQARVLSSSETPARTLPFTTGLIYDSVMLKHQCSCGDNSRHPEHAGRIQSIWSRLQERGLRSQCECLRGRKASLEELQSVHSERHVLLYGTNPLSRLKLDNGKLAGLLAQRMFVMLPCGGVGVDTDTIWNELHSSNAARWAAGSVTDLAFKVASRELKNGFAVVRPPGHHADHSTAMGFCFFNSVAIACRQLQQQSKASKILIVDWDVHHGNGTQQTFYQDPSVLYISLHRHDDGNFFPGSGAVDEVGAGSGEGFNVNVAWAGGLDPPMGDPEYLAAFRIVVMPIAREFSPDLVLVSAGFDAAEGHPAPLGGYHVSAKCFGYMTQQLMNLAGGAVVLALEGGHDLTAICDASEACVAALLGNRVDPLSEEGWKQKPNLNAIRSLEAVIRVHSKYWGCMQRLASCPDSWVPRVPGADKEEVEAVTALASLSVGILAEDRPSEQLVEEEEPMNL
The experiment in a line: HDAC biochemical activity measurement (fluorescent substrate deacetylation).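 Also: fluorogenic deacetylation assay using acetyl-lysine substrate at 20 µM, enzyme and compound incubated 30 min at 37 °C, then developer added, fluorescence read at 360/460 nm.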 As to conditions: HDAC7; 37° C. 30 minutes.

The structures appear in SMILES notation. Where two headings read alike, the source gives them in different places.

Regarding `C/C=C1\NC(=O)c2cc(SC)cc(n2)CNC(=O)C[C@@H](/C=C/CCSC(C)=O)OC(=O)[C@H](C(C)C)NC1=O` [Compound 166], the GI50 – broadly, the concentration giving 50% growth inhibition – was found to be 80 nM in experiment [1] (HT1080 cells); 46 nM in experiment [2]; 50 nM in [3]; 68 nM in experiment [4]; 17 nM in experiment [5]; 26 nM in experiment [6]. Besides, the GI50 in experiment [7] (BGC-823 cells) is 70 nM; in experiment [8] (MOLT-4 cells), 30 nM; in [9] (PANC-1 cells), 20 nM; in experiment [10], 73 nM; in experiment [11] it was 56 nM; in [12] (MCF-7 cells), 60 nM. In addition, the GI50 was found to be 60 nM in [13] (DU145 cells); 31 nM in [14]; 30 nM in experiment [15] (U937 cells); 50 nM in experiment [16] (Hela cells); 70 nM in experiment [17] (lncap cells); 10 nM in experiment [18] (A549 cells). Besides, the GI50 in experiment [19] is 53 nM; in [20], 42 nM. Further, at HDAC7, the “IC50 HDAC7” value was “no activity”.
`C/C=C1\NC(=O)c2cc(F)cc(n2)CNC(=O)C[C@@H](/C=C/CCSC(C)=O)OC(=O)[C@H](CCCCN)NC1=O` [Example 73]: the GI50 in experiment [1] turned out to be 50 nM; in [2], 35 nM; in experiment [3], 86 nM; in [4], 52 nM; in experiment [5], 35 nM; in experiment [6], 37 nM. For the same molecule, the GI50 was determined as 30 nM in experiment [7]; 30 nM in [8]; 50 nM in [9]; 38 nM in experiment [10]; 35 nM in experiment [11]; 20 nM in experiment [12]. In addition, the GI50 came out at 30 nM in [13]; 52 nM in experiment [14]; 30 nM in [15]; 80 nM in [16]; 30 nM in experiment [17]; 20 nM in experiment [18]. Moreover, the concentration for 50% growth inhibition (GI50) in experiment [19] came out at 24 nM; in [20], 28 nM. Moreover, on HDAC7, the “IC50 HDAC7” value was “no activity”.
As for `C/C=C1\NC(=O)c2cc(SC)cc(n2)CNC(=O)C[C@@H](/C=C/CCSC(C)=O)OC(=O)[C@H](Cc2ccc(O)cc2)NC1=O` [Compound 202], the GI50 in [1] (HT1080 cells) worked out at 30 nM; in experiment [2] it was 15 nM; in experiment [3], 38 nM; in experiment [4] it was 76 nM; in experiment [5], 41 nM; in experiment [6], 58 nM. Besides, the 50% growth inhibitory concentration (GI50) was 40 nM in [7] (BGC-823 cells); 50 nM in [8] (MOLT-4 cells); 30 nM in [9] (PANC-1 cells); 29 nM in [10]; 31 nM in experiment [11]; 30 nM in experiment [12] (MCF-7 cells). Further, the GI50 in experiment [13] (DU145 cells) is 70 nM; in [14], 32 nM; in [15] (U937 cells) it was 20 nM; in experiment [16] (Hela cells), 20 nM; in experiment [17] (lncap cells) it was 20 nM; in [18] (A549 cells), 50 nM. Further, the 50% growth inhibitory concentration (GI50) in experiment [19] amounted to 26 nM; in experiment [20], 31 nM. In addition, the “IC50 HDAC7” value on HDAC7 was “no activity”.
With `C/C=C1\NC(=O)c2cccc(n2)CNC(=O)C[C@@H](/C=C/CCS)OC(=O)[C@H](CCCCNC(=O)OCC2c3ccccc3-c3ccccc32)NC1=O` [Compound 119], the GI50 was found to be 90 nM in experiment [1]; 36 nM in experiment [2]; 62 nM in [3]; 37 nM in experiment [4]; 27 nM in experiment [5]; 38 nM in [6]. For the same molecule, the GI50 amounted to 40 nM in experiment [7]; 90 nM in [8]; 40 nM in [9]; 38 nM in experiment [10]; 26 nM in [11]; 50 nM in experiment [12]. Further, the GI50 in [13] was 50 nM; in experiment [14], 37 nM; in experiment [15], 60 nM; in experiment [16], 90 nM; in experiment [17] it was 90 nM; in experiment [18], 60 nM. The GI50 came out at 28 nM in experiment [19] and 34 nM in [20]. The “IC50 HDAC7” value at HDAC7 is on record as “no activity”.

The values are drawn from US10065990B2, “Cyclic peptide compound, and preparation method, pharmaceutical composition and use thereof” (HANGZHOU GUANYU BIO-MEDICAL CO., LTD, priority 2013, dated 2018).
